Measurements: US11419921B2, “Methods of treating neurological disorders” (EnClear Therapies, Inc., priority 2018, dated 2022)
Blank lines part the entries; values can stand above or below the substance they belong to.

Experiments:
[1] = tested on: (GR)10; assay: Cleavage of (GR)10 by enzymes in solution (PBS with CaCl2 and MgCl2), LC/MS of GR repeats; format: biochemical; conditions: (GR)10 50 μM
Experimental: • (GR)10 dipeptide (also (GR)8, (GR)6, (GR)4, (GR)2) were synthetized by solid-phase synthesis by CanPeptide; All peptides are uncapped and supplied lyophilized with TFA as counter ions. Purity was always above 95%. • Buffer: PBS buffer containing CaCl2 and MgCl2. • Stock solution of enzyme (e.g., 10 mg/mL) (prepared per manufacturer instructions) in PBS. Activators added as necessary. • Working solution of protein of the desired concentration (e.g., 100 μg/mL) prepared immediately before use by diluting the stock solution (e.g., 5 μL of 10 mg/mL stock solution) in PBS buffer (e.g., in 495 μL of PBS). Exemplary Procedure Using 50 μM Concentrations of (GR)10
25 μL of a 100 μM solution of (GR)10 was added to each well of a 96-well plate. 25 μL of a solution of enzyme (two times the desired final enzyme concentration) was added, and the plates were incubated at room temperature. At the specified time points (5 minutes, 10 minutes, 30 minutes, 60 minutes, and 180 minutes) 2.5 μL of a 10% TFA solution were added to stop the reaction. For the time 0 min well, the TFA was added to the well before addition of the enzyme. After last time point, all samples were further diluted with 150 μL of dilution solution. The quenched reaction mixtures were analyzed by LC/MS to determine the concentration of GR repeats of different lengths.
The chromatography and mass spectrometry conditions utilized are shown in Table 2 and Table 3, respectively.

[2] = tested on: (GR)10; assay: (GR)10 digestion by immobilized proteases stored at 4° C. for over 2 months; format: biochemical; conditions: 200 μM (GR)10 in PBS, 5 or 60 minute treatment, FIGS. 8C, 8D
Experimental: (GR)10 was prepared in water to a stock concentration of 10 mM then diluted to a concentration of 200 μM in PBS with Ca^2+ and Mg^2+. (GR)10 samples were then treated with agarose resins having immobilized trypsin or elastase, PBS alone, or agarose resin alone, for 5 minutes or 60 minutes at room temperature. Resins were prepared by a routine method as commonly used by persons of ordinary skill in the art (e.g., the binding reaction described in the POROS™ 20 AL, EP and OH Perfusion Chromatography Bulk Media for Activated Affinity Chromatography Product Information Sheet, ThermoFisher Scientific, Waltham, Mass., Pub. No. 8-0031-40-0993, Rev. C., (incorporated herein by reference in its entirety)) and stored at 4° C. for over 2 months.
50 μl of treated samples were prepared for LC/MS analysis by adding 2.5 μl of 10% trifluoroacetic acid to each sample and 150 μl of dilution solution (0.5% formic acid in ACN/MeOH [50:50]).

[3] = tested on: iCell® motor neurons; assay: Toxicity of (GR)10, untreated or protease-treated, on iCell motor neurons; format: cell-based; conditions: (GR)10 concentrations of 25, 50 and 100 μM
Experimental: 200 μM of (GR)10 were diluted in human cerebrospinal fluid (CSF) and 400 μL were applied to each immobilized proteases. The reaction was incubated 5 minutes at room temperature with end-to-end mixing. Columns were spun down 1 minute at 1,000 Xg to recover digested GR dipeptides. Columns were washed with 12 resin volumes of PBS. The procedure was repeated with 60 minutes digestion time. 100 μL of each samples were transferred to a clean tube, flash-frozen and subsequently used for LC/MS quantification of GR repeats of different lengths. The remaining 300 μL of each samples were flash-frozen and used to assess neuron toxicity.
300 μL of CSF were applied to each immobilized proteases and incubated 60 minutes at room temperature with end-to-end mixing. Columns were spun down 1 minute at 1,000 Xg to recover treated CSF. Samples were flash-frozen and subsequently used to test neuron toxicity.
This example describes the reduced toxicity of (GR)10 on in vitro neuronal cells by digestion of (GR)10 with proteases.

- (GR)1 concentration ([1]; enzyme 2.5 μg/mL, 0 min): BLQ
- (GR)2 concentration ([1]; enzyme 2.5 μg/mL, 0 min): BLQ
- (GR)4 concentration ([1]; enzyme 2.5 μg/mL, 0 min): 0.1 µM
- (GR)6 concentration ([1]; enzyme 2.5 μg/mL, 0 min): 0.1 µM
- (GR)8 concentration ([1]; enzyme 2.5 μg/mL, 0 min): 1.1 µM
- (GR)10 concentration ([1]; enzyme 2.5 μg/mL, 0 min): 37.7 µM
- (GR)1 concentration ([1]; enzyme 2.5 μg/mL, 5 min): BLQ
- (GR)2 concentration ([1]; enzyme 2.5 μg/mL, 5 min): BLQ
- (GR)4 concentration ([1]; enzyme 2.5 μg/mL, 5 min): 0.1 µM
- (GR)6 concentration ([1]; enzyme 2.5 μg/mL, 5 min): 0.1 µM
- (GR)8 concentration ([1]; enzyme 2.5 μg/mL, 5 min): 1.5 µM
- (GR)10 concentration ([1]; enzyme 2.5 μg/mL, 5 min): 42.9 µM
- (GR)1 concentration ([1]; enzyme 2.5 μg/mL, 10 min): BLQ
- (GR)2 concentration ([1]; enzyme 2.5 μg/mL, 10 min): BLQ
- (GR)4 concentration ([1]; enzyme 2.5 μg/mL, 10 min): 0.1 µM
- (GR)6 concentration ([1]; enzyme 2.5 μg/mL, 10 min): BLQ
- (GR)8 concentration ([1]; enzyme 2.5 μg/mL, 10 min): 1.4 µM
- (GR)10 concentration ([1]; enzyme 2.5 μg/mL, 10 min): 46.7 µM
- (GR)1 concentration ([1]; enzyme 2.5 μg/mL, 30 min): BLQ
- (GR)2 concentration ([1]; enzyme 2.5 μg/mL, 30 min): 0.1 µM
- (GR)4 concentration ([1]; enzyme 2.5 μg/mL, 30 min): 0.2 µM
- (GR)6 concentration ([1]; enzyme 2.5 μg/mL, 30 min): 0.1 µM
- (GR)8 concentration ([1]; enzyme 2.5 μg/mL, 30 min): 1.3 µM
- (GR)10 concentration ([1]; enzyme 2.5 μg/mL, 30 min): 49.1 µM
- (GR)1 concentration ([1]; enzyme 2.5 μg/mL, 60 min): 0.1 µM
- (GR)2 concentration ([1]; enzyme 2.5 μg/mL, 60 min): 0.2 µM
- (GR)4 concentration ([1]; enzyme 2.5 μg/mL, 60 min): 0.3 µM
- (GR)6 concentration ([1]; enzyme 2.5 μg/mL, 60 min): 0.1 µM
- (GR)8 concentration ([1]; enzyme 2.5 μg/mL, 60 min): 1.1 µM
- (GR)10 concentration ([1]; enzyme 2.5 μg/mL, 60 min): 56.2 µM
- (GR)1 concentration ([1]; enzyme 2.5 μg/mL, 120 min): 0.2 µM
- (GR)2 concentration ([1]; enzyme 2.5 μg/mL, 120 min): 0.2 µM
- (GR)4 concentration ([1]; enzyme 2.5 μg/mL, 120 min): 0.4 µM
- (GR)6 concentration ([1]; enzyme 2.5 μg/mL, 120 min): 0.3 µM
- (GR)8 concentration ([1]; enzyme 2.5 μg/mL, 120 min): BLQ
- (GR)10 concentration ([1]; enzyme 2.5 μg/mL, 120 min): 45.3 µM
- (GR)1 concentration ([1]; enzyme 10 μg/mL, 0 min): BLQ
- (GR)2 concentration ([1]; enzyme 10 μg/mL, 0 min): BLQ
- (GR)4 concentration ([1]; enzyme 10 μg/mL, 0 min): 0.1 µM
- (GR)6 concentration ([1]; enzyme 10 μg/mL, 0 min): BLQ
- (GR)8 concentration ([1]; enzyme 10 μg/mL, 0 min): 1.3 µM
- (GR)10 concentration ([1]; enzyme 10 μg/mL, 0 min): 52.0 µM
- (GR)1 concentration ([1]; enzyme 10 μg/mL, 5 min): 0.1 µM
- (GR)2 concentration ([1]; enzyme 10 μg/mL, 5 min): 0.1 µM
- (GR)4 concentration ([1]; enzyme 10 μg/mL, 5 min): 0.2 µM
- (GR)6 concentration ([1]; enzyme 10 μg/mL, 5 min): BLQ
- (GR)8 concentration ([1]; enzyme 10 μg/mL, 5 min): BLQ
- (GR)10 concentration ([1]; enzyme 10 μg/mL, 5 min): 54.8 µM
- (GR)1 concentration ([1]; enzyme 10 μg/mL, 10 min): 0.1 µM
- (GR)2 concentration ([1]; enzyme 10 μg/mL, 10 min): 0.1 µM
- (GR)4 concentration ([1]; enzyme 10 μg/mL, 10 min): 0.2 µM
- (GR)6 concentration ([1]; enzyme 10 μg/mL, 10 min): 0.1 µM
- (GR)8 concentration ([1]; enzyme 10 μg/mL, 10 min): 1.0 µM
- (GR)10 concentration ([1]; enzyme 10 μg/mL, 10 min): 59.4 µM
- (GR)1 concentration ([1]; enzyme 10 μg/mL, 30 min): 0.3 µM
- (GR)2 concentration ([1]; enzyme 10 μg/mL, 30 min): 0.4 µM
- (GR)4 concentration ([1]; enzyme 10 μg/mL, 30 min): 0.4 µM
- (GR)6 concentration ([1]; enzyme 10 μg/mL, 30 min): 0.4 µM
- (GR)8 concentration ([1]; enzyme 10 μg/mL, 30 min): 1.3 µM
- (GR)10 concentration ([1]; enzyme 10 μg/mL, 30 min): 48.6 µM
- (GR)1 concentration ([1]; enzyme 10 μg/mL, 60 min): 0.5 µM
- (GR)2 concentration ([1]; enzyme 10 μg/mL, 60 min): 0.6 µM
- (GR)4 concentration ([1]; enzyme 10 μg/mL, 60 min): 0.8 µM
- (GR)6 concentration ([1]; enzyme 10 μg/mL, 60 min): 0.5 µM
- (GR)8 concentration ([1]; enzyme 10 μg/mL, 60 min): 2.4 µM
- (GR)10 concentration ([1]; enzyme 10 μg/mL, 60 min): 55.2 µM
- (GR)1 concentration ([1]; enzyme 10 μg/mL, 120 min): 1.1 µM
- (GR)2 concentration ([1]; enzyme 10 μg/mL, 120 min): 1.4 µM
- (GR)4 concentration ([1]; enzyme 10 μg/mL, 120 min): 1.6 µM
- (GR)6 concentration ([1]; enzyme 10 μg/mL, 120 min): 1.3 µM
- (GR)8 concentration ([1]; enzyme 10 μg/mL, 120 min): 3.0 µM
- (GR)10 concentration ([1]; enzyme 10 μg/mL, 120 min): 48.7 µM
Substance: Thrombin

Substance: agarose resin having immobilized elastase: elastase immobilized in-house on agarose resin
- (GR)10 proteolytic activity after storage at 4° C. for over 2 months [2]: did not exhibit substantial (GR)10 proteolytic activity
- Effect of protease treatment of (GR)10 on (GR)10 toxicity [3]: abrogation of (GR)10 toxicity
